The record followed here is US10758633B2, “Nanoparticles for magnetic resonance imaging applications” (Massachusetts Institute of Technology, priority 2014, dated 2020).

The nature of the data set: MRI contrast enhancement in blood over time, 1.5 T clinical MRI, mice brain slice. Type of data set: in vivo. The conditions noted are these: intravenous injection, T1-weighted. Here is the method:
The MRI contrast enhancement of Magnevist® (the most commonly used gadolinium-based contrast agents, GBCAs) and ES-SPIONs in blood were compared over time. According to approved animal protocols, mice were scanned in a 1.5 T clinical MRI machine. After intravenous injection of Magnevist or ES-SPIONs, the T1-weighted images of a single slice in mice brain were taken using clinical MRI sequences (˜3.5 mins time length), and then the half-life of contrast enhancements of both agents were compared side-by-side. […] Left and right images show corresponding side views of the image in the middle. It can be seen in FIG. 6 that a three dimensional profile highlighting the blood vessels in brain was generated.

Structures are written as SMILES.

In the case of `CNC[C@H](O)[C@@H](O)[C@H](O)[C@H](O)CO.CNC[C@H](O)[C@@H](O)[C@H](O)[C@H](O)CO.O=C([O-])CN(CCN(CC(=O)[O-])CC(=O)O)CCN(CC(=O)[O-])CC(=O)O.[Gd+3]` [Magnevist], the “half-life of contrast enhancement” value was roughly 2 min.
